In patent publication US20160185797A1, “ALKYNYL ALCOHOLS AND METHODS OF USE” (Genentech, Inc., priority 2013, published 2016):

Legend:
[1] = system: REL-A (p65) nuclear translocation in HeLa cells; experiment: REL-A (p65) nuclear translocation assay in HeLa cells, TNF-α stimulated (classical NF-kB signaling), high content imaging; type: cell-based; conditions: Homo sapiens, HeLa, compound 4.5 h, then 10 ng/mL TNF-α for 30 minutes, read-out: REL-A HeLa Transloc Assay (IC50)
Procedure: (§1) Several assays were developed to profile the cellular activities of NIK inhibitors.
(§2) (2) A second set of cell assay are used to define the selectivity of NIK inhibitors toward inhibition of classical vs. non-classical NF-kB signaling and rely on quantification of the nuclear translocation of p52 (NF-kB2) and REL-A (p65) using high content cellular imaging. For the p52 (non-classical NF-kB signaling) nuclear translocation assay, HeLa cells are treated with different concentrations of compounds (0.2% DMSO final) in medium containing 10% fetal bovine serum and then stimulated with 100 ng/mL of an anti-lymphotoxin beta receptor antibody (R&D Systems) for 5 hours. In the REL-A nuclear translocation assay, HeLa cells are incubated with compounds (0.2% DMSO final) for 4.5 hours in medium containing 10% fetal bovine serum before stimulating them with 10 ng/mL tumor necrosis factor (TNF)-α (R&D Systems) for 30 minutes. Cells are fixed with 4% paraformaldehyde, permeabilized by adding 0.1% Triton X-100 in phosphate buffered saline, and then are incubated with either 2 ug/mL anti-p52 antibody (Millipore) or 400 ng/mL anti-REL-A (p65) antibody (Santa Cruz Biotechnology). Finally, the cells are incubated with an Alexa488-labeled secondary antibody (Invitrogen) and DRAQ5 DNA stain (Biostatus). Imaging is carried out using an Opera reader (Perkin Elmer) and data are analyzed with the aid of Acapella software (Perkin Elmer). The p52 or REL-Atranslocation into the nucleus is quantified by the ratio of the nuclear to cytoplasmic signal intensity. […] The compounds in listed in Table 1 have the corresponding inhibitory value (IC50 in micromolar) for NIK p52 Translocation Assay as set forth in Table 2.
(§3) The compounds in listed in Table 1 have the corresponding inhibitory values (IC50 in micromolar) for the Translocation Assays as set forth in Table 2.

[2] = system: p52 (NF-kB2) nuclear translocation in HeLa cells; experiment: p52 (NF-kB2) nuclear translocation assay in HeLa cells, anti-lymphotoxin beta receptor antibody stimulated (non-classical NF-kB signaling), high content imaging; type: cell-based; conditions: Homo sapiens, 100 ng/mL anti-lymphotoxin beta receptor antibody for 5 hours, read-out: p52 HeLa Transloc Assay (IC50)
Procedure: as §1, §2, §3

[3] = target: T1, nuclear factor-kappa B (NF-kB)-inducing kinase (NIK) (Homo sapiens, UniProt Q99558); experiment: NIK enzyme inhibition assay (Transcreener ADP fluorescence polarization, NIK ADP-FP); type: biochemical
T1 construct: made in house; host or cells: baculovirus-infected insect cells
T1 sequence (Q99558 whole entry): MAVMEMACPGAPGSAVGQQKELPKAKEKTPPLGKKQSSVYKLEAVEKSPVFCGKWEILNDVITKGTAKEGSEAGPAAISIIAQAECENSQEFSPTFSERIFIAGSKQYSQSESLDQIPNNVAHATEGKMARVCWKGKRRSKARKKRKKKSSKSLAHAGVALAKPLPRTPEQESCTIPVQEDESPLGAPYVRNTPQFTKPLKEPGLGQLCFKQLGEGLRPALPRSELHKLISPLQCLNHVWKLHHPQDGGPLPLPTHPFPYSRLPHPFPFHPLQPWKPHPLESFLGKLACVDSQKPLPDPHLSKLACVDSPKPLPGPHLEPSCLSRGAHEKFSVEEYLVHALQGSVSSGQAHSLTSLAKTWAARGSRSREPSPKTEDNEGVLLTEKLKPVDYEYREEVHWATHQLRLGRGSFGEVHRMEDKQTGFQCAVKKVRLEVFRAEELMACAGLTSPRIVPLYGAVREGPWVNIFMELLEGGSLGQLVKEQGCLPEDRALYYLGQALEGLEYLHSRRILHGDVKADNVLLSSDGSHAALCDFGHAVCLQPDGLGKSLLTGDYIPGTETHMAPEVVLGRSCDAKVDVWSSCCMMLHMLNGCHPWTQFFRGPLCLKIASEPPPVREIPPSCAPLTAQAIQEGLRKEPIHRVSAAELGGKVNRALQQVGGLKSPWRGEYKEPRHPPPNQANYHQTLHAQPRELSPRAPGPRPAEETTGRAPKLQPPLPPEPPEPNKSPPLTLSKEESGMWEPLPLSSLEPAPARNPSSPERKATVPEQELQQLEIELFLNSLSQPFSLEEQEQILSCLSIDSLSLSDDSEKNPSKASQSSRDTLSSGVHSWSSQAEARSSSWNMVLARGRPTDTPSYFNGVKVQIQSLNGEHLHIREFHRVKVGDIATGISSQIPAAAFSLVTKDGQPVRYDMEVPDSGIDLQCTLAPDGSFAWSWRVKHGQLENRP

SMILES	IC50 [1] [nM]	IC50 [2] [nM]	Ki [3] [nM]
CN1CC[C@@](O)(C#Cc2cccc(-c3cccc(C(N)=O)n3)c2)C1=O [Example 1, 6-[3-[2-[(3R)-3-hydroxy-1-methyl-2-oxo-pyrrolidin-3-yl]ethynyl]phenyl]pyridine-2-carboxamide]	> 20000	93.2	
CN1CC[C@@](O)(C#Cc2cccc(-c3ccnc(C(N)=O)n3)c2)C1=O [Example 3, 4-[3-[2-[(3R)-3-hydroxy-1-methyl-2-oxo-pyrrolidin-3-yl]ethynyl]phenyl]pyrimidine-2-carboxamide]	> 20000	674	
COc1cc(C(N)=O)nc(-c2cccc(C#C[C@]3(O)CCN(C)C3=O)c2)c1 [Example 90, 6-[3-[2-[(3R)-3-hydroxy-1-methyl-2-oxo-pyrrolidin-3-yl]ethynyl]phenyl]-4-methoxy-pyridine-2-carboxamide]	≥ 20000	16.8	
CN1CC[C@@](O)(C#Cc2cccc(-c3ccc(N)c(C(N)=O)n3)c2)C1=O [Example 63, 3-amino-6-[3-[2-[(3R)-3-hydroxy-1-methyl-2-oxo-pyrrolidin-3-yl]ethynyl]phenyl]pyridine-2-carboxamide]	≥ 20000	10.7	
CN1CC[C@@](O)(C#Cc2cccc(-c3cncc(C(N)=O)n3)c2)C1=O [Example 154, 6-[3-[2-[(3R)-3-hydroxy-1-methyl-2-oxo-pyrrolidin-3-yl]ethynyl]phenyl]pyrazine-2-carboxamide]	> 2000	400	
COCc1cc(C(N)=O)nc(-c2cccc(C#C[C@]3(O)CCN(C)C3=O)c2)c1 [Example 198, 6-[3-[2-[(3R)-3-hydroxy-1-methyl-2-oxo-pyrrolidin-3-yl]ethynyl]phenyl]-4-(methoxymethyl)pyridine-2-carboxamide]			0.5
CN1CC[C@@](O)(C#Cc2cc(F)c(F)c(-c3ccc(N)c(C(N)=O)n3)c2)C1=O [Example 194, 3-amino-6-[2,3-difluoro-5-[2-[(3R)-3-hydroxy-l-methyl-2-oxo-pyrrolidin-3-yl]ethynyl]phenyl]pyridine-2-carboxamide]			< 0.05
CN1CC[C@@](O)(C#Cc2cccc(-c3ccc(C(F)F)c(C(N)=O)n3)c2)C1=O [Example 187, 3-(difluoromethyl)-6-[3-[2-[(3R)-3-hydroxy-1-methyl-2-oxo-pyrrolidin-3-yl]ethynyl]phenyl]pyridine-2-carboxamide]			0.06
CN1CC[C@@](O)(C#Cc2cccc(-c3ccc(F)c(C(N)=O)n3)c2)C1=O [Example 157, 3-fluoro-6-[3-[2-[(3R)-3-hydroxy-l-methyl-2-oxo-pyrrolidin-3-yl]ethynyl]phenyl] pyridine-2-carboxamide]			1.86
CN1CC[C@@](O)(C#Cc2cccc(-c3nc(C(N)=O)c4cnn(C5CC5)c4n3)c2)C1=O [Example 193, 1-cyclopropyl-6-[3-[2-[(3R)-3-hydroxy-1-methyl-2-oxo-pyrrolidin-3-yl]ethynyl]phenyl]pyrazolo[3,4-d] pyrimidine-4-carboxamide]			< 0.1
CN1CC[C@@](O)(C#Cc2cccc(-c3cc4ccccc4c(C(N)=O)n3)c2)C1=O [Example 40, 3-[3-[2-[(3R)-3-hydroxy-1-methyl-2-oxo-pyrrolidin-3-yl]ethynyl]phenyl] isoquinoline-1-carboxamide]	> 8000	7.8	
Cc1nnc([C@](C)(O)C#Cc2cccc(-c3nccc(C(N)=O)n3)c2)o1 [Example 138, 2-[3-[(3R)-3-hydroxy-3-(5-methyl-1,3,4-oxadiazol-2-yl)but-1-ynyl]phenyl]pyrimidine-4-carboxamide]			60.2
CN1CC[C@@](O)(C#Cc2cccc(-c3cc(-n4cc(F)cn4)cc(C(N)=O)n3)c2)C1=O [Example 190, 4-(4-fluoropyrazol-1-yl)-6-[3-[2-[(3R)-3-hydroxy-1-methyl-2-oxo-pyrrolidin-3-yl]ethynyl]phenyl]pyridine-2-carboxamide]			< 0.05
CCOc1cc(C(N)=O)nc(-c2cccc(C#C[C@]3(O)CCN(C)C3=O)c2)c1 [Example 199]			0.4
CN1CC[C@@](O)(C#Cc2cccc(-c3cc(O)cc(C(N)=O)n3)c2)C1=O [Example 176, 4-hydroxy-6-[3-[2-[(3R)-3-hydroxy-1-methyl-2-oxo-pyrrolidin-3-yl]ethynyl]phenyl] pyridine-2-carboxamide]			0.96
Cc1cc(-c2cccc(C#C[C@]3(O)CCN(C)C3=O)c2)nc(C(N)=O)c1O [Example 195, 3-hydroxy-6-[3-[2-[(3R)-3-hydroxy-1-methyl-2-oxo-pyrrolidin-3-yl]ethynyl]phenyl]-4-methyl-pyridine-2-carboxamide]			< 0.05
NC(=O)c1nc(-c2cccc(C#C[C@]3(O)CCOC3=O)c2)ccc1N (single isomer, unassigned) [Example 64]			4.07
CN1CC[C@@](O)(C#Cc2cc(-c3nc(C(N)=O)cc4c3cnn4C)ccc2F)C1=O [Example 177, 4-[4-fluoro-3-[2-[(3R)-3-hydroxy-l-methyl-2-oxo-pyrrolidin-3-yl]ethynyl]phenyl]-1-methyl-pyrazolo [4,3-c]pyridine-6-carboxamide]			< 0.05
COc1cc(-c2cccc(C#C[C@]3(O)CCN(C)C3=O)c2)nc(C(N)=O)c1OC [Example 181, 6-[3-[2-[(3R)-3-hydroxy-l-methyl-2-oxo-pyrrolidin-3-yl]ethynyl]phenyl]-3,4-dimethoxy-pyridine-2-carboxamide]			3.67
CN1CC[C@@](O)(C#Cc2cccc(-c3ncc(N4CCOCC4)c(C(N)=O)n3)c2)C1=O [Example 103, 2-[3-[2-[(3R)-3-hydroxy-1-methyl-2-oxo-pyrrolidin-3-yl]ethynyl]phenyl]-5-morpholino-pyrimidine-4-carboxamide]			22.8
CC(=O)N1CCN(c2cc(C(N)=O)nc(-c3cccc(C#C[C@]4(O)CCN(C)C4=O)c3)n2)CC1 [Example 7, 6-(4-acetylpiperazin-1-yl)-2-[3-[2-[(3R)-3-hydroxy-1-methyl-2-oxo-pyrrolidin-3-yl]ethynyl]phenyl]pyrimidine-4-carboxamide]			1.25
CN1CC[C@@](O)(C#Cc2cccc(-c3nccc(C(N)=O)n3)c2F)C1=O [Example 91, 2-[2-fluoro-3-[2-[(3R)-3-hydroxy-1-methyl-2-oxo-pyrrolidin-3-yl]ethynyl]phenyl]pyrimidine-4-carboxamide]			14.4
COc1cc(C(N)=O)nc(-c2cccc(C#C[C@]3(O)CCN(C)C3=O)c2)n1 [Example 29, 2-[3-[2-[(3R)-3-hydroxy-1-methyl-2-oxo-pyrrolidin-3-yl]ethynyl]phenyl]-6-methoxy-pyrimidine-4-carboxamide]	> 20000	46.6	
CN1CC[C@@](O)(C#Cc2cccc(-c3nc(C(N)=O)cc4c3OCC4)c2)C1=O [Example 186, 7-[3-[2-[(3R)-3-hydroxy-1-methyl-2-oxo-pyrrolidin-3-yl]ethynyl]phenyl]-2,3-dihydrofuro[1,3-c]pyridine-5-carboxamide]			0.14
CN1CC[C@@](O)(C#Cc2cccc(-c3cc(NC4COC4)cc(C(N)=O)n3)c2)C1=O [Example 163, 6-[3-[2-[(3R)-3-hydroxy-1-methyl-2-oxo-pyrrolidin-3-yl]ethynyl]phenyl]-4-(oxetan-3-ylamino)pyridine-2-carboxamide]			0.21
